For 40 molecules, inhibition results are on record in ChEMBL document CHEMBL2417531, “The discovery of inhibitors of Fas-mediated cell death pathway using the combined computational method” (Bioorg Med Chem Lett, 2013).

The experiment concerns the target T1, Tumor necrosis factor receptor superfamily member 6 (Rattus norvegicus) (UniProt Q63199).
T1 sequence (whole entry): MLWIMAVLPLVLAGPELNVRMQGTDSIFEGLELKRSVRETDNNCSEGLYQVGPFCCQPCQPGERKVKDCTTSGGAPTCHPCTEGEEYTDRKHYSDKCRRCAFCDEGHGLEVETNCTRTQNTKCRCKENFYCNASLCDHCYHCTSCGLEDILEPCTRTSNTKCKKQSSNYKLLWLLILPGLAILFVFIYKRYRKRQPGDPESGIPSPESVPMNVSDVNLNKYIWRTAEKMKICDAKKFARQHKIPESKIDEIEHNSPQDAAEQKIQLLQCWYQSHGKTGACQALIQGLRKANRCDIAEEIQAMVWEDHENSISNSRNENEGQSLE
The experiment can be described thus: Inhibition of Fas-mediated cell death in oxygen and glucose deprived rat H9c2 cells at 10 uM treated 30 mins before oxygen and glucose deprivation measured after 6 hrs by DAPI staining. It counts as cell-based.

The term inhibition denotes how much of the control response was suppressed. Read a high inhibition as a strong effect. Turning to `O=C(O)c1cc(Cl)ccc1NC(=O)C(Sc1ccc(Br)cc1)c1ccccc1` (stereo not given), the inhibition was 27.4%.

`Cc1csc(C(=O)O)c1NC(=O)CSc1ccc(Br)cc1` yielded an inhibition of 14.3%.

In the case of `COC(=O)c1sccc1NC(=O)CSc1ccccc1`, the inhibition is 9.48%. For the molecule `COc1cc(NC(=O)CSc2ccc(Br)cc2)c(C2=NCCO2)cc1OC`, the inhibition is 11.9%. With `COC(=O)c1c(NC(=O)CSc2ccc(Br)cc2)cnn1CCc1ccccc1` the figure was 5.41%. Regarding `COc1cc(C(=O)O)c(NC(=O)CCSc2ccccn2)c(OC)c1OC`, the inhibition was determined as 28.6%.

In the case of `COC(=O)c1sccc1NC(=O)COc1ccc(Br)cc1`, the inhibition was found to be 10.8%. With `COC(=O)c1sc2ccccc2c1NC(=O)CCSc1ccc(Br)cc1` the figure was 8.57%; with `COC(=O)c1c(NC(=O)CSc2ccc([N+](=O)[O-])cc2)cnn1CCc1ccccc1`, 4.5%; with `CN(C)C(=O)c1sccc1NC(=O)CSc1ccc(Br)cc1`, 10.4%. Take `COC(=O)c1ccsc1NC(=O)CSc1ccc(Br)cc1`: the inhibition is 9%. For `COC(=O)c1sc2ccccc2c1NC(=O)CSc1ccccc1`, the inhibition was 7.94%.

In turn, `COC(=O)c1sccc1NC(=O)CSc1cccc(OC)c1` gave an inhibition of 6.18%. As to `COC(=O)c1c(NC(=O)CSc2ccccc2N)cnn1CCc1ccccc1`, the inhibition worked out at 5.4%. Next, `COC(=O)c1oc2ccccc2c1NC(=O)CSc1ccc(Br)cc1`: 7.57%; `COC(=O)c1cc(Br)cc(Br)c1NC(=O)CCSc1ccccn1`: 11.4%; `COC(=O)c1c(NC(=O)CSc2cccc(OC)c2)cnn1CCc1ccccc1`: 4.17%. Next, `COC(=O)c1ccc(Cl)cc1NC(=O)CSc1ccc(Br)cc1`: 12%; `COC(=O)c1ccsc1NC(=O)CSc1ccccc1`: 8.38%; `O=C(CSc1ccc(Br)cc1)Nc1ccccc1C(=O)O`: 30.9%. With `COC(=O)c1ccccc1NC(=O)CSc1ccccc1` the figure was 6.05%; with `COC(=O)c1cc(OC)c(OC)c(OC)c1NC(=O)CCSc1ccccn1`, 13.5%. Molecule `COC(=O)c1ccsc1NC(=O)CCSc1ccc(Br)cc1` registered an inhibition of 6.45%. Consider `COC(=O)c1ccc(Cl)cc1NC(=O)CCSc1ccccn1`, for which the inhibition was 12.8%. Molecule `O=C(CSc1ccc(Br)cc1)Nc1c(C(=O)O)oc2ccccc12` came in with an inhibition of 8.47%.

On to `COC(=O)c1nn(CCc2ccccc2)cc1NC(=O)CCc1ccccc1`, for which the inhibition turned out to be 3.99%.

For the molecule `O=C(CCSc1ccccn1)Nc1cc(Cl)ccc1C1=NCCO1`, the inhibition was 23.2%. With `COC(=O)c1oc2cccc(Cl)c2c1NC(=O)CSc1ccccn1` the figure was 7.33%; with `COC(=O)c1cc(Br)cc(Br)c1NC(=O)C(Sc1ccc(Br)cc1)c1ccccc1` (stereo not given), 21.3%. As to `COC(=O)c1ccccc1NC(=O)CSc1ccccn1`, the inhibition turned out to be 7.9%.

As for `COC(=O)c1sc2ncccc2c1NC(=O)CCSc1ccccn1`, the inhibition was determined as 4.95%. For the molecule `COC(=O)c1nn(CCc2ccccc2)cc1NC(=O)COc1ccc(Br)cc1`, the inhibition came to 2.97%. As to `COC(=O)c1sccc1NC(=O)CCSc1ccccc1`, the inhibition was found to be 5.24%. With `COC(=O)c1sccc1NC(=O)CCSc1ccc(Br)cc1` the figure was 16.9%; with `O=C(CSc1ccc(Br)cc1)Nc1c(Br)cc(Br)cc1C(=O)O`, 16.1%; with `COC(=O)c1oc2cccc(Cl)c2c1NC(=O)CSc1ccc(Br)cc1`, 14.7%.

Molecule `COC(=O)c1sccc1NC(=O)CN(C)c1ccccc1` yielded an inhibition of 7.57%. As for `COC(=O)c1sccc1NC(=O)CSc1ccc(Br)cc1`, the inhibition turned out to be 4%. With `COC(=O)c1sccc1NC(=O)CSc1ccc(OC)cc1` the figure was 10.8%; with `COC(=O)c1cc(OC)c(OC)cc1NC(=O)CCSc1ccccn1`, 17.5%.
